Experimental data reported in patent US20220235049A1, “SUBSTITUTED PYRROLO [2, 3-b] PYRIDINE AND PYRAZOLO [3,4-b] PYRIDINE DERIVATIVES AS PROTEIN KINASE INHIBITORS” (Fochon Pharmaceuticals, Ltd., priority 2019, published 2022).

System: DOHH2 cells
Test: Cell proliferation assay in DOHH2 cells (MTS)
Format: cell-based
Description: To investigate whether a compound is able to inhibit the activity of BTK in cells, a mechanism-based assay using DOHH2 (DSMZ catalog #: ACC47) cell was developed. In this assay, inhibition of BTK was detected by the inhibition of DOHH2 cells proliferation. Cells were collected and plated onto 96-well plates at the optimized cell density (5000 cells/well). Plates were incubated at 37° C., with 5% CO2 for 4 h. Compounds were serially diluted and added to the plates with the final concentrations as 10000, 3333.3, 1111.1, 370.4, 123.5, 41.2, 13.7, 4.6 and 1.5 nM. Plates were incubated at 37° C., with 5% CO2 for 120 h. An aliquot of 20 μL MTS/100 μL medium mixture solution were added to each well and the plates were incubated for exactly 2 h. The reaction was stopped by adding 25 μL 10% SDS to each well. The absorbance was measured by a microplate reader at 490 nm and 650 nm (reference wavelength). IC50 was calculated using GraphPad Prism 5.0.
Select compounds prepared as described above were assayed according to the biological procedures described herein.

Compound | IC50 (Homo sapiens, DOHH-2, 120 h) [nM] | IC50 (120 h) [nM]
O=C(c1ccc(Oc2c(F)cccc2F)cc1)c1c[nH]c2ncc(F)c(N[C@@H]3CC[C@@H](CO)OC3)c12 [Example 183, (4-(2,6-difluorophenoxy)phenyl)(5-fluoro-4-(((3R,6S)-6-(hydroxymethyl)tetrahydro-2H-pyran-3-yl)amino)-1H-pyrrolo[2,3-b]pyridin-3-yl)methanone] | 17 | –
COc1cnc2[nH]cc(C(=O)c3ccc(Oc4ccccc4F)cc3F)c2c1N[C@@H]1CC[C@@H](CNS(C)(=O)=O)OC1 [Example 161, N-(((2S,5R)-5-((3-(2-fluoro-4-(2-fluorophenoxy)benzoyl)-5-methoxy-1H-pyrrolo[2,3-b]pyridin-4-yl)amino)tetrahydro-2H-pyran-2-yl)methyl)methanesulfonamide] | 14 | –
Cc1cc(Oc2ccccc2F)ncc1C(=O)c1c[nH]c2ncc(F)c(N[C@@H]3CC[C@@H](CO)OC3)c12 [Example 117, (5-fluoro-4-(((3R,6S)-6-(hydroxymethyl)tetrahydro-2H-pyran-3-yl)amino)-1H-pyrrolo[2,3-b]pyridin-3-yl)(6-(2-fluorophenoxy)-4-methylpyridin-3-yl)methanone] | 69 | –
O=C(c1ccc(Oc2ccccc2F)cc1Cl)c1c[nH]c2ncc(Cl)c(N[C@@H]3CC[C@@H](CO)OC3)c12 [Example 100, (5-chloro-4-(((3R,6S)-6-(hydroxymethyl)tetrahydro-2H-pyran-3-yl)amino)-1H-pyrrolo[2,3-b]pyridin-3-yl)(2-chloro-4-(2-fluorophenoxy)phenyl)methanone] | 67 | –
COc1cnc2[nH]cc(C(=O)c3c(C)cc(Oc4ccccc4F)cc3F)c2c1N[C@@H]1CC[C@@H](CO)OC1 [Example 132, (2-fluoro-4-(2-fluorophenoxy)-6-methylphenyl)(4-(((3R,6S)-6-(hydroxymethyl)tetrahydro-2H-pyran-3-yl)amino)-5-methoxy-1H-pyrrolo[2,3-b]pyridin-3-yl)methanone] | 7 | –
COc1cnc2[nH]cc(C(=O)c3ccc(Oc4ccccn4)cc3F)c2c1N[C@@H]1CC[C@@H](CO)OC1 [Example 196, (2-fluoro-4-(pyridin-2-yloxy)phenyl)(4-(((3R,6S)-6-(hydroxymethyl)tetrahydro-2H-pyran-3-yl)amino)-5-methoxy-1H-pyrrolo[2,3-b]pyridin-3-yl)methanone] | 44 | –
COc1cnc2[nH]cc(C(=O)c3ccc(Oc4ccccc4)cc3F)c2c1N[C@@H]1CC[C@@H](CO)OC1 [Example 191, (2-fluoro-4-phenoxyphenyl)(4-(((3R,6S)-6-(hydroxymethyl)tetrahydro-2H-pyran-3-yl)amino)-5-methoxy-1H-pyrrolo[2,3-b]pyridin-3-yl)methanone] | 1 | –
O=C(c1ccc(Oc2ccccc2F)cc1Cl)c1c[nH]c2nccc(N[C@@H]3CC[C@@H](CO)OC3)c12 [Example 30, (2-chloro-4-(2-fluorophenoxy)phenyl)(4-(((3R,6S)-6-(hydroxymethyl)tetrahydro-2H-pyran-3-yl)amino)-1H-pyrrolo[2,3-b]pyridin-3-yl)methanone] | 21 | –
COc1cnc2[nH]cc(C(=O)c3ccc(Oc4ccccc4)cc3C)c2c1N[C@@H]1CC[C@@H](CO)OC1 [Example 134, (4-(((3R,6S)-6-(hydroxymethyl)tetrahydro-2H-pyran-3-yl)amino)-5-methoxy-1H-pyrrolo[2,3-b]pyridin-3-yl)(2-methyl-4-phenoxyphenyl)methanone] | 1 | –
Cc1cc(Oc2ccccc2F)ccc1C(=O)c1c[nH]c2nccc(N[C@@H]3CC[C@@H](CO)OC3)c12 [Example 46, (4-(2-fluorophenoxy)-2-methylphenyl)(4-(((3R,6S)-6-(hydroxymethyl)tetrahydro-2H-pyran-3-yl)amino)-1H-pyrrolo[2,3-b]pyridin-3-yl)methanone] | 1 | –
CCOc1cnc2[nH]cc(C(=O)c3ccc(Oc4ccccc4F)cc3F)c2c1N[C@@]12CO[C@H](CO)C1C2 (single isomer, unassigned) [Example 172] | – | 1
COc1cnc2[nH]cc(C(=O)c3ccc(Oc4ccccc4F)cc3C)c2c1N[C@@]12CO[C@H](CO)C1C2 (single isomer, unassigned) [Example 167] | – | 18
N#Cc1cnc2[nH]cc(C(=O)c3ccc(Oc4ccccc4)cc3Cl)c2c1N[C@@]12COC(CO)[C@@H]1C2 (single isomer, unassigned) [Example 17] | 43 | –
Cc1cc(Oc2ccccc2F)ccc1C(=O)c1c[nH]c2ncc(F)c(N[C@@H]3CC[C@@H](CO)OC3)c12 [Example 126, (5-fluoro-4-(((3R,6S)-6-(hydroxymethyl)tetrahydro-2H-pyran-3-yl)amino)-1H-pyrrolo[2,3-b]pyridin-3-yl)(4-(2-fluorophenoxy)-2-methylphenyl)methanone] | 4 | –
COc1cnc2[nH]cc(C(=O)c3ccc(Oc4ncccc4F)cc3F)c2c1N[C@@H]1CC[C@@H](CO)OC1 [Example 195] | 83 | –
COc1cnc2[nH]cc(C(=O)c3c(F)cc(Oc4ccccn4)cc3F)c2c1N[C@@H]1CC[C@@H](CO)OC1 [Example 198, (2,6-difluoro-4-(pyridin-2-yloxy)phenyl)(4-(((3R,6S)-6-(hydroxymethyl)tetrahydro-2H-pyran-3-yl)amino)-5-methoxy-1H-pyrrolo[2,3-b]pyridin-3-yl)methanone] | 52 | –
COc1cnc2[nH]cc(C(=O)c3ccc(Oc4ccccc4F)cc3C)c2c1N[C@@H]1CC[C@@H](CO)OC1 [Example 78, (4-(2-fluorophenoxy)-2-methylphenyl)(4-(((3R,6S)-6-(hydroxymethyl)tetrahydro-2H-pyran-3-yl)amino)-5-methoxy-1H-pyrrolo[2,3-b]pyridin-3-yl)methanone] | 1 | –
O=C(c1ccc(Oc2ccccc2)cc1F)c1c[nH]c2nccc(N[C@@H]3CC[C@@H](CO)OC3)c12 [Example 10, (2-fluoro-4-phenoxyphenyl)(4-(((3R,6S)-6-(hydroxymethyl)tetrahydro-2H-pyran-3-yl)amino)-1H-pyrrolo[2,3-b]pyridin-3-yl)methanone] | 19 | –
O=C(c1c(F)cc(Oc2ccccc2)cc1F)c1c[nH]c2nccc(N[C@@H]3CC[C@@H](CO)OC3)c12 [Example 44, (2,6-difluoro-4-phenoxyphenyl)(4-(((3R,6S)-6-(hydroxymethyl)tetrahydro-2H-pyran-3-yl)amino)-1H-pyrrolo[2,3-b]pyridin-3-yl)methanone] | 7 | –
O=C(c1ccc(Oc2c(F)cccc2F)cc1Cl)c1c[nH]c2ncc(Cl)c(N[C@@H]3CC[C@@H](CO)OC3)c12 [Example 189, (5-chloro-4-(((3R,6S)-6-(hydroxymethyl)tetrahydro-2H-pyran-3-yl)amino)-1H-pyrrolo[2,3-b]pyridin-3-yl)(2-chloro-4-(2,6-difluorophenoxy)phenyl)methanone] | 32 | –
CCOc1cnc2[nH]cc(C(=O)c3ccc(Oc4ccccc4F)cc3Cl)c2c1N[C@@H]1CC[C@@H](CO)OC1 [Example 65, (2-chloro-4-(2-fluorophenoxy)phenyl)(5-ethoxy-4-(((3R,6S)-6-(hydroxymethyl)tetrahydro-2H-pyran-3-yl)amino)-1H-pyrrolo[2,3-b]pyridin-3-yl)methanone] | 1 | –
N#Cc1cnc2[nH]cc(C(=O)c3ccc(Oc4ccccc4)cc3Cl)c2c1N[C@@H]1CC[C@@H](CO)OC1 [Example 7, 3-(2-chloro-4-phenoxybenzoyl)-4-(((3R,6S)-6-(hydroxymethyl)tetrahydro-2H-pyran-3-yl)amino)-1H-pyrrolo[2,3-b]pyridine-5-carbonitrile] | 83 | –
Cc1cc(Oc2ccccc2F)cc(F)c1C(=O)c1c[nH]c2nccc(N[C@@H]3CC[C@@H](CO)OC3)c12 [Example 130, (2-fluoro-4-(2-fluorophenoxy)-6-methylphenyl)(4-(((3R,6S)-6-(hydroxymethyl)tetrahydro-2H-pyran-3-yl)amino)-1H-pyrrolo[2,3-b]pyridin-3-yl)methanone] | 36 | –
COc1cnc2[nH]cc(C(=O)c3ccc(Oc4c(F)cccc4F)cc3)c2c1N[C@@H]1CC[C@@H](CO)OC1 [Example 184, (4-(2,6-difluorophenoxy)phenyl)(4-(((3R,6S)-6-(hydroxymethyl)tetrahydro-2H-pyran-3-yl)amino)-5-methoxy-1H-pyrrolo[2,3-b]pyridin-3-yl)methanone] | 1 | –
N#Cc1cnc2[nH]cc(C(=O)c3ccc(Oc4ccccc4F)cc3Cl)c2c1N[C@@H]1CC[C@@H](CO)OC1 [Example 32, 3-(2-chloro-4-(2-fluorophenoxy)benzoyl)-4-(((3R,6S)-6-(hydroxymethyl)tetrahydro-2H-pyran-3-yl)amino)-1H-pyrrolo[2,3-b]pyridine-5-carbonitrile] | 15 | –
Cc1cc(Oc2ccccc2F)ccc1C(=O)c1c[nH]c2ncc(F)c(N[C@@]34CO[C@H](CO)C3C4)c12 (single isomer, unassigned) [Example 179] | 1 | –
O=C(c1ccc(Oc2ccccc2F)cc1)c1c[nH]c2ncc(Cl)c(N[C@@H]3CC[C@@H](CO)OC3)c12 [Example 98, (5-chloro-4-(((3R,6S)-6-(hydroxymethyl)tetrahydro-2H-pyran-3-yl)amino)-1H-pyrrolo[2,3-b]pyridin-3-yl)(4-(2-fluorophenoxy)phenyl)methanone] | 41 | –
N#Cc1cnc2[nH]cc(C(=O)c3ccc(Oc4ccccc4)cc3)c2c1N[C@@H]1CC[C@@H](CO)OC1 [Example 29, 4-(((3R,6S)-6-(hydroxymethyl)tetrahydro-2H-pyran-3-yl)amino)-3-(4-phenoxybenzoyl)-1H-pyrrolo[2,3-b]pyridine-5-carbonitrile] | 99 | –
